Experiments:
Test in all cases: relative viability (nuclei count vs DMSO), 5 days (fraction); higher = more cells survive
Bexarotene + Luminespib = compound: C=C(c1ccc(C(=O)O)cc1)c1cc2c(cc1C)C(C)(C)CCC2(C)C [Bexarotene] + CCNC(=O)c1noc(-c2cc(C(C)C)c(O)cc2O)c1-c1ccc(CN2CCOCC2)cc1 [Luminespib] (partner 0.01 µM)
Outline: (§1)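 One day after seeding in 1536-well plates, lung cancer cell lines were dosed by pin tool. Dosing was either single-drug or a fixed anchor-drug dose plus five library-drug doses (not always all listed) in √10 steps. After 5 days, nuclei were stained in one fix-and-stain step and counted on 4× images, and relative viability is the nuclei count of treated wells over that of vehicle wells, given as the median of duplicate plates.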

Bexarotene + Bortezomib = compound: C=C(c1ccc(C(=O)O)cc1)c1cc2c(cc1C)C(C)(C)CCC2(C)C [Bexarotene] + CC(C)C[C@H](NC(=O)[C@H](Cc1ccccc1)NC(=O)c1cnccn1)B(O)O [Bortezomib] (partner 0.002 µM)
Outline: as §1

Bexarotene + Dasatinib = compound: C=C(c1ccc(C(=O)O)cc1)c1cc2c(cc1C)C(C)(C)CCC2(C)C [Bexarotene] + Cc1nc(Nc2ncc(C(=O)Nc3c(C)cccc3Cl)s2)cc(N2CCN(CCO)CC2)n1 [Dasatinib] (partner 0.075 µM)
Outline: as §1

Bexarotene + Palbociclib = compound: C=C(c1ccc(C(=O)O)cc1)c1cc2c(cc1C)C(C)(C)CCC2(C)C [Bexarotene] + CC(=O)c1c(C)c2cnc(Nc3ccc(N4CCNCC4)cn3)nc2n(C2CCCC2)c1=O [Palbociclib] (partner 0.5 µM)
Outline: as §1

Cell Line	relative viability (Bexarotene + Luminespib; first compound 0.08 µM)	relative viability (Bexarotene + Luminespib; first compound 0.253 µM)	relative viability (Bexarotene + Luminespib; first compound 0.8 µM)	relative viability (Bexarotene + Luminespib; first compound 2.53 µM)	relative viability (Bexarotene + Luminespib; first compound 8 µM)	relative viability (Bexarotene + Bortezomib; first compound 0.08 µM)	relative viability (Bexarotene + Bortezomib; first compound 0.253 µM)	relative viability (Bexarotene + Bortezomib; first compound 0.8 µM)	relative viability (Bexarotene + Bortezomib; first compound 2.53 µM)	relative viability (Bexarotene + Bortezomib; first compound 8 µM)	relative viability (Bexarotene + Dasatinib; first compound 0.08 µM)	relative viability (Bexarotene + Dasatinib; first compound 0.253 µM)	relative viability (Bexarotene + Dasatinib; first compound 0.8 µM)	relative viability (Bexarotene + Dasatinib; first compound 2.53 µM)	relative viability (Bexarotene + Dasatinib; first compound 8 µM)	relative viability (Bexarotene + Palbociclib; first compound 0.08 µM)	relative viability (Bexarotene + Palbociclib; first compound 0.253 µM)	relative viability (Bexarotene + Palbociclib; first compound 0.8 µM)	relative viability (Bexarotene + Palbociclib; first compound 2.53 µM)	relative viability (Bexarotene + Palbociclib; first compound 8 µM)
NCI-H661	0.943	0.9	0.929	0.89	0.89	0.807	0.807	0.803	0.81	0.761	1.14	0.89	0.837	0.838	0.801	0.407	0.422	0.447	0.401	0.405
NCI-H1993	1.09	0.783	0.792	0.859	0.815	1.01	0.991	0.984	0.978	1.1	0.655	0.573	0.528	0.617	0.613	0.654	0.668	0.597	0.693	0.733
NCI-H1437	1.05	1.07	1.15	1.07	1.1	0.528	0.621	0.611	0.546	0.49	0.445	0.6	0.567	0.411	0.434	0.317	0.306	0.294	0.291	0.286
UMC-11	1.04	0.983	0.866	0.911	0.969	0.877	0.796	0.8	1.03	0.637	0.485	0.516	0.516	0.514	0.493	0.308	0.355	0.316	0.267	0.339
201T	1	1.04	1.01	0.985	0.881	1.08	1.1	1.07	1.08	1.05	0.584	0.569	0.54	0.602	0.565	0.345	0.33	0.315	0.361	0.312
ChaGo-K-1	0.54	0.604	0.6	0.686	0.693	1.04	1.03	1.05		1.06	0.568	0.604	0.638	0.661	0.593	1.09	0.983	0.99	0.967	1.01
NCI-H1650	0.195	0.183	0.219	0.225	0.231	0.218	0.21	0.178	0.204	0.227	0.383	0.38	0.408	0.333	0.296	0.355	0.285	0.279	0.271	0.282
LOU-NH91	0.364	0.318	0.346	0.287	0.268	0.544	0.458	0.488	0.458	0.439	0.584	0.613	0.467	0.521	0.502	0.544	0.507	0.485	0.528	0.551

From the supplement of paper PMC10307832
